Assay results: patent US4864023A, “Pyrido(3,2,1-IJ)-1,3,4-benzoxadiazine derivatives” (priority 1988, dated 1989)
≈ marks a conversion by molar mass, not a printed value. Counter-ions that a name gives are not always drawn. Like-named read-outs stand apart in the source and are kept apart here.

Assays:
[1] = test system: Staphylococcus epidermidis NR 2942; assay: in vitro antibacterial activity, standard agar dilution method; format: cell-based; conditions: NR2942, aerobic, read-out: minimum inhibitory concentration (MIC)
[2] = test system: Staphylococcus aureus FDA 209P JC-1; assay: as above; format: cell-based; conditions: FDA209P, read-out: minimum inhibitory concentration (MIC)
[3] = test system: Proteus rettgeri ATCC 14505; assay: as above; format: cell-based; conditions: Providencia rettgeri, ATCC14505, aerobic, read-out: minimum inhibitory concentration (MIC)
Escherichia coli NR 2630 = assay: as above; format: cell-based; conditions: NR2630; Escherichia coli NR 2630; aerobic; agar dilution; read-out: minimum inhibitory concentration (MIC)
[4] = acute toxicity by oral administration; conditions: mouse, in vivo; oral administration, ICR mice; read-out: LD50
Excerpt: The acute toxicity of these compounds was examined by oral administration in ICR mice.

[5] = test system: Pseudomonas stutzeri IFO 12695; assay: in vitro antibacterial activity, standard agar dilution method; format: cell-based; conditions: Stutzerimonas stutzeri, IFO12695, aerobic, read-out: minimum inhibitory concentration (MIC)
[6] = test system: Klebsiella pneumoniae FDA PCI 602; assay: as above; format: cell-based; conditions: FDAPCI602, aerobic, read-out: minimum inhibitory concentration (MIC)
[7] = test system: Pseudomonas aeruginosa NR 2950; assay: as above; format: cell-based; conditions: NR2950, aerobic, read-out: minimum inhibitory concentration (MIC)
[8] = test system: Salmonella typhimurium IFO 12529; assay: as above; format: cell-based; conditions: Salmonella enterica, aerobic, read-out: minimum inhibitory concentration (MIC)
[9] = test system: Bordetella bronchiseptica ATCC 4617; assay: as above; format: cell-based; conditions: ATCC4617, aerobic, read-out: minimum inhibitory concentration (MIC)
[10] = test system: Bacillus subtilis PCI 219; assay: as above; format: cell-based; conditions: PCI219, aerobic, read-out: minimum inhibitory concentration (MIC)
[11] = test system: Enterobacter aerogenes NR 2945; assay: as above; format: cell-based; conditions: Klebsiella aerogenes, NR2945, aerobic, read-out: minimum inhibitory concentration (MIC)
[12] = test system: Staphylococcus aureus NR 2855; assay: as above; format: cell-based; conditions: NR2855; Staphylococcus aureus NR 2855; aerobic; agar dilution; read-out: minimum inhibitory concentration (MIC)
[13] = test system: Serratia marcescens IFO 12648; assay: as above; format: cell-based; conditions: IFO12648, aerobic, read-out: minimum inhibitory concentration (MIC)
[14] = test system: Citrobacter freundii IFO 12681; assay: as above; format: cell-based; conditions: IFO12681, aerobic, read-out: minimum inhibitory concentration (MIC)
[15] = test system: Proteus vulgaris OX19 ATCC 6898; assay: as above; format: cell-based; conditions: ATCC6898, aerobic, read-out: minimum inhibitory concentration (MIC)
[16] = test system: Alcaligenes faecalis IFO 13111; assay: as above; format: cell-based; conditions: IFO13111, aerobic, read-out: minimum inhibitory concentration (MIC)
[17] = test system: Enterococcus faecalis NR 2943; assay: as above; format: cell-based; conditions: NR2943, aerobic, read-out: minimum inhibitory concentration (MIC)
[18] = test system: Enterobacter cloacae NR 2946; assay: as above; format: cell-based; conditions: NR2946, aerobic, read-out: minimum inhibitory concentration (MIC)
[19] = test system: Staphylococcus epidermidis IFO 12993; assay: as above; format: cell-based; conditions: IFO12993, aerobic, read-out: minimum inhibitory concentration (MIC)
[20] = test system: Pseudomonas aeruginosa A3; assay: as above; format: cell-based; conditions: aerobic, read-out: minimum inhibitory concentration (MIC)
[21] = test system: Escherichia coli NIHJ JC-2; assay: as above; format: cell-based; conditions: NIHJJC2, aerobic, read-out: minimum inhibitory concentration (MIC)
[22] = test system: Staphylococcus aureus Smith; assay: as above; format: cell-based; conditions: read-out: minimum inhibitory concentration (MIC)
Escherichia coli ML4707 = assay: in vivo therapeutic efficacy, lethal systemic infection in mice; conditions: E. coli ML4707 i.p. infection, ICR mice, p.o. at time of injection, mortality 5 days
Protocol: The in vivo antibacterial activities of pyrido[3,2,1-ij]-1,3,4-benzoxadiazine derivatives prepared by Example 5, Example 30, Example 65 and Example 66 as mentioned below were tested against lethal infection of Escherichia coli ML4707, Pseudomonas aeruginosa 4au542 and Streptococcus pneumoniae 6-001. ICR mice weighing about 20 g were infected by intraperitoneal injection of a corresponding bacterial suspension. The test compounds were administered orally or subcutaneously at the time of injection. […] The respective 50% effective dose (ED50, mg/kg) which protects 50% of the animals from death caused by infection, is shown in Table 3.

[23] = Staphylococcus aureus FDA 209P JC-1, aerobic, agar dilution
[24] = Staphylococcus aureus Smith, aerobic, agar dilution

CNCC1CCN(c2c(F)cc3c(=O)c(C(=O)O)cn4c3c2OCN4C)C1 (stereo not shown) [Example 17, 9-fluoro-3-methyl-10-[3-[(methylamino)methyl]-1-pyrrolidinyl]-7-oxo-2,3-dihydro-7H-pyrido[3,2,1-ij]-1,3,4-benzoxadiazine-6-carboxylic acid]
MIC [1]: 0.1 µg/mL (≈ 0.266 µM)
MIC [2, 23]: 0.05 µg/mL (≈ 0.133 µM)
MIC [3]: 1.56 µg/mL (≈ 4.14 µM)
MIC (Escherichia coli NR 2630): 0.025 µg/mL (≈ 0.0664 µM)
LD50 [4]: > 2000 mg/kg
MIC [5]: 0.025 µg/mL (≈ 0.0664 µM)
MIC [6]: 0.78 µg/mL (≈ 2.07 µM)
MIC [7]: 6.25 µg/mL (≈ 16.6 µM)
MIC [8]: 0.05 µg/mL (≈ 0.133 µM)
MIC [9]: 6.25 µg/mL (≈ 16.6 µM)
MIC [10]: 0.013 µg/mL (≈ 0.0345 µM)
MIC [11]: 0.05 µg/mL (≈ 0.133 µM)
MIC [12]: 0.2 µg/mL (≈ 0.531 µM)
MIC [13]: 0.78 µg/mL (≈ 2.07 µM)
MIC [14]: 0.2 µg/mL (≈ 0.531 µM)
MIC [15]: 0.025 µg/mL (≈ 0.0664 µM)
MIC [16]: 6.25 µg/mL (≈ 16.6 µM)
MIC [17]: 1.56 µg/mL (≈ 4.14 µM)
MIC [18]: 0.1 µg/mL (≈ 0.266 µM)
MIC [19]: 0.2 µg/mL (≈ 0.531 µM)
MIC [20]: 0.39 µg/mL (≈ 1.04 µM)
MIC [21]: 0.1 µg/mL (≈ 0.266 µM)
MIC [22, 24]: 0.025 µg/mL (≈ 0.0664 µM)

CCNCC1CCN(c2c(F)cc3c(=O)c(C(=O)O)cn4c3c2OCN4C)C1 (stereo not shown) [Example 18]
MIC [1]: 0.1 µg/mL (≈ 0.256 µM)
MIC [2, 23]: 0.05 µg/mL (≈ 0.128 µM)
MIC [3]: 0.39 µg/mL (≈ 0.999 µM)
MIC (Escherichia coli NR 2630): 0.013 µg/mL (≈ 0.0333 µM)
LD50 [4]: > 2000 mg/kg
MIC [5]: 0.025 µg/mL (≈ 0.064 µM)
MIC [6]: 0.39 µg/mL (≈ 0.999 µM)
MIC [7]: 6.25 µg/mL (≈ 16 µM)
MIC [8]: 0.025 µg/mL (≈ 0.064 µM)
MIC [9]: 3.13 µg/mL (≈ 8.02 µM)
MIC [10]: 0.013 µg/mL (≈ 0.0333 µM)
MIC [11]: 0.05 µg/mL (≈ 0.128 µM)
MIC [12]: 0.1 µg/mL (≈ 0.256 µM)
MIC [13]: 0.39 µg/mL (≈ 0.999 µM)
MIC [14]: 0.1 µg/mL (≈ 0.256 µM)
MIC [15]: 0.025 µg/mL (≈ 0.064 µM)
MIC [16]: 6.25 µg/mL (≈ 16 µM)
MIC [17]: 1.56 µg/mL (≈ 4 µM)
MIC [18]: 0.05 µg/mL (≈ 0.128 µM)
MIC [19]: 0.1 µg/mL (≈ 0.256 µM)
MIC [20]: 0.78 µg/mL (≈ 2 µM)
MIC [21]: 0.05 µg/mL (≈ 0.128 µM)
MIC [22, 24]: 0.025 µg/mL (≈ 0.064 µM)

CC1CN(c2c(F)cc3c(=O)c(C(=O)O)cn4c3c2OCN4C)CCN1C (stereo not shown) [Example 36, 10-(3,4-dimethyl-1-piperazinyl)-9-fluoro-3-methyl-7-oxo-2,3-dihydro-7H-pyrido[3,2,1-ij]-1,3,4-benzoxadiazine-6-carboxylic acid]
MIC [1]: 0.2 µg/mL (≈ 0.531 µM)
MIC [2, 23]: 0.39 µg/mL (≈ 1.04 µM)
MIC [3]: 0.78 µg/mL (≈ 2.07 µM)
MIC (Escherichia coli NR 2630): 0.05 µg/mL (≈ 0.133 µM)
LD50 [4]: > 2000 mg/kg
MIC [5]: 0.1 µg/mL (≈ 0.266 µM)
MIC [6]: 0.39 µg/mL (≈ 1.04 µM)
MIC [7]: 6.25 µg/mL (≈ 16.6 µM)
MIC [8]: 0.1 µg/mL (≈ 0.266 µM)
MIC [9]: 0.39 µg/mL (≈ 1.04 µM)
MIC [10]: 0.025 µg/mL (≈ 0.0664 µM)
MIC [11]: 0.05 µg/mL (≈ 0.133 µM)
MIC [12]: 0.1 µg/mL (≈ 0.266 µM)
MIC [13]: 0.39 µg/mL (≈ 1.04 µM)
MIC [14]: 0.2 µg/mL (≈ 0.531 µM)
MIC [15]: 0.025 µg/mL (≈ 0.0664 µM)
MIC [16]: 3.13 µg/mL (≈ 8.32 µM)
MIC [17]: 3.13 µg/mL (≈ 8.32 µM)
MIC [18]: 0.1 µg/mL (≈ 0.266 µM)
MIC [19]: 0.2 µg/mL (≈ 0.531 µM)
MIC [20]: 0.78 µg/mL (≈ 2.07 µM)
MIC [21]: 0.1 µg/mL (≈ 0.266 µM)
MIC [22, 24]: 0.1 µg/mL (≈ 0.266 µM)

CN1COc2c(-n3ccnc3)c(F)cc3c(=O)c(C(=O)O)cn1c23 [Example 56, 9-fluoro-10-(1-imidazolyl)-3-methyl-7-oxo-2,3-dihydro-7H-pyrido[3,2,1-ij]-1,3,4-benzoxadiazine-6-carboxylic acid]
MIC [1]: 0.39 µg/mL (≈ 1.18 µM)
MIC ([2]; Staphylococcus aureus): 0.39 µg/mL (≈ 1.18 µM)
MIC [3]: 1.56 µg/mL (≈ 4.72 µM)
MIC (Escherichia coli NR 2630): 0.0065 µg/mL (≈ 0.0197 µM)
LD50 [4]: > 2000 mg/kg
MIC [5]: 0.0033 µg/mL (≈ 0.00999 µM)
MIC [6]: 0.39 µg/mL (≈ 1.18 µM)
MIC [7]: 6.25 µg/mL (≈ 18.9 µM)
MIC [8]: 0.05 µg/mL (≈ 0.151 µM)
MIC [9]: 3.13 µg/mL (≈ 9.48 µM)
MIC [10]: 0.2 µg/mL (≈ 0.606 µM)
MIC [11]: 0.1 µg/mL (≈ 0.303 µM)
MIC [12]: 0.78 µg/mL (≈ 2.36 µM)
MIC [13]: 0.78 µg/mL (≈ 2.36 µM)
MIC [14]: 0.1 µg/mL (≈ 0.303 µM)
MIC [15]: 0.013 µg/mL (≈ 0.0394 µM)
MIC [16]: 3.13 µg/mL (≈ 9.48 µM)
MIC [17]: 12.5 µg/mL (≈ 37.8 µM)
MIC [18]: 0.05 µg/mL (≈ 0.151 µM)
MIC [19]: 0.39 µg/mL (≈ 1.18 µM)
MIC [20]: 3.13 µg/mL (≈ 9.48 µM)
MIC [21]: 0.1 µg/mL (≈ 0.303 µM)
MIC ([22]; Staphylococcus aureus): 0.39 µg/mL (≈ 1.18 µM)

CCOC(=O)c1cn2c3c(c(N4CCC(N)C4)c(F)cc3c1=O)OCN2C (stereo not shown) [Example 65, ethyl 10-(3-amino-1-pyrrolidinyl)-9-fluoro-3-methyl-7-oxo-2,3-dihydro-7H-pyrido[3,2,1-ij]-1,3,4-benzoxadiazine-6-carboxylate]
ED50 (Escherichia coli ML4707; Escherichia coli, ML4707, po, 120 h, read-out: 50% effective dose (ED50)): 1.12 mg/kg

CN1COc2c(N3CCC(N)C3)c(F)cc3c(=O)c(C(=O)O)cn1c23 (stereo not shown) [Example 66, 10-(3-amino-1-pyrrolidinyl)-9-fluoro-3-methyl-7-oxo-2,3-dihydro-7H-pyrido[3,2,1-ij]-1,3,4-benzoxadiazine-6-carboxylic acid hydrochloride]
50% effective dose (ED50) (Escherichia coli ML4707; hydrochloride, 7200 min): 0.51 mg/kg
